In patent publication US12552796B2, “EED inhibitor, and preparation method therefor and use thereof” (SHANGHAITECH UNIVERSITY, priority 2019, dated 2026):
Like-named read-outs stand apart in the source and are kept apart here.

System: cellular H3K27 methylation
Test: Cellular H3K27 methylation assay (Western blot of H3K27me3 in HeLa cells)
Assay type: cell-based
Conditions: Homo sapiens, 72 h, read-out: PD IC50
[1] = HeLa cells, 3 days, H3K27me3 level by Western blot

Row | SMILES | IC50 [1] | IC50 (HeLa)
1 | Fc1ccc2c(c1CNc1nccc3nncn13)CCO2 [HJM-001] | 484 nM | 
2 | Fc1ccc2c(c1CNc1ncc(C3CC3)c3nncn13)CCO2 [HJM-002] | 98.8 nM | 
3 | Fc1ccc2c(c1CNc1ncc(C3CCCCO3)c3nncn13)CCO2 (stereo not shown) [HJM-004, N-((5-fluoro-2,3-dihydrobenzofuran-4-yl)methyl)-8-(tetrahydro-2H-pyran-2-yl)-[1,2,4]triazolo[4,3-c]pyrimidin-5-amine] | 140 nM | 
4 | Cc1ncccc1CCc1cnc(NCc2c(F)ccc3c2CCO3)n2cnnc12 [HJM-005] | 454 nM | 
5 | Fc1ccc2c(c1CNc1ncc(/C=C/CN3CCCCC3)c3nncn13)CCO2 [HJM-006] | 48.7 nM | 
6 | Fc1ccc2c(c1CNc1ncc(/C=C/CN3CCOCC3)c3nncn13)CCO2 [HJM-007] | 49.9 nM | 
7 | Fc1ccc2c(c1CNc1ncc(CCCN3CCCCC3)c3nncn13)CCO2 [HJM-008] | 112 nM | 
8 | CC(c1cnc(NCc2c(F)ccc3c2CCO3)n2cnnc12)N1CCCCC1 (stereo not shown) [HJM-009] | 563 nM | 
9 | COCCC(COC)c1cnc(NCc2c(F)ccc3c2CCO3)n2cnnc12 (stereo not shown) [HJM-012] | 112 nM | 
10 | Fc1ccc2c(c1CNc1ncc(OCCN3CCOCC3)c3nncn13)CCO2 [HJM-013] | 225 nM | 
11 | COc1cnc(NCc2c(F)ccc3c2CCO3)n2cnnc12 [HJM-014] | 43.7 nM | 
12 | Fc1ccc2c(c1CNc1ncc(OC3CCOC3)c3nncn13)CCO2 (stereo not shown) [HJM-018] | 59.2 nM | 
13 | Cc1ncccc1COc1cnc(NCc2c(F)ccc3c2CCO3)n2cnnc12 [HJM-021] | 242 nM | 
14 | Fc1ccc2c(c1CNc1ncc(NCC3CC3)c3nncn13)CCO2 [HJM-022] | 284 nM | 
15 | Fc1ccc2c(c1CNc1ncc(NCCN3CCOCC3)c3nncn13)CCO2 [HJM-023] | 1160 nM | 
16 | CN(CCN1CCOCC1)c1cnc(NCc2c(F)ccc3c2CCO3)n2cnnc12 [HJM-024] | 1110 nM | 
17 | CCN(CC)C(=O)c1cnc(NCc2c(F)ccc3c2CCO3)n2cnnc12 [HJM-026] | 75.6 nM | 
18 | O=C(c1cnc(NCc2c(F)ccc3c2CCO3)n2cnnc12)N1CCCCC1 [HJM-028] | 95.3 nM | 
19 | O=C(NC1CC1)c1cnc(NCc2c(F)ccc3c2CCO3)n2cnnc12 [HJM-029] | 82.2 nM | 

Row | SMILES | IC50 [1] | IC50 (HeLa)
20 | O=C(CN1CCOCC1)Nc1cnc(NCc2c(F)ccc3c2CCO3)n2cnnc12 [HJM-032] | 317 nM | 
21 | COCCC(=O)Nc1cnc(NCc2c(F)ccc3c2CCO3)n2cnnc12 [HJM-034] | 99.5 nM | 
22 | O=C(Nc1cnc(NCc2c(F)ccc3c2CCO3)n2cnnc12)C1CCC1 [HJM-035] | 53.6 nM | 
23 | O=C(Nc1cnc(NCc2c(F)ccc3c2CCO3)n2cnnc12)C1CCCC1 [HJM-036] | 160 nM | 
24 | O=C(Nc1cnc(NCc2c(F)ccc3c2CCO3)n2cnnc12)C1CCOC1 (stereo not shown) [HJM-038] | 187 nM | 
25 | O=C(Nc1cnc(NCc2c(F)ccc3c2CCO3)n2cnnc12)C1CCCCO1 (stereo not shown) [HJM-039] | 67.2 nM | 
26 | O=C(Nc1cnc(NCc2c(F)ccc3c2CCO3)n2cnnc12)C1CCCOC1 (stereo not shown) [HJM-040] | 175 nM | 
27 | O=C(Nc1cnc(NCc2c(F)ccc3c2CCO3)n2cnnc12)C1CCOCC1 [HJM-041] | 334 nM | 
28 | O=C(Nc1cnc(NCc2c(F)ccc3c2CCO3)n2cnnc12)c1cccnc1 [HJM-043] |  | 115 nM
29 | O=C(Nc1cnc(NCc2c(F)ccc3c2CCO3)n2cnnc12)c1ccncc1 [HJM-044] | 288 nM | 
30 | COc1cccc(F)c1CNc1ncc(/C=C/c2cccnc2C)c2nncn12 [HJM-046] | 2000 nM | 
31 | COc1cccc(F)c1CNc1ncc(CCc2cccnc2C)c2nncn12 [HJM-047] | 7000 nM | 
32 | COc1cccc(F)c1CNc1ncc(Oc2cccnc2C)c2nncn12 [HJM-048] | 1620 nM | 
33 | COc1cccc(F)c1CNc1ncc(/C=C/CN2CCCCC2)c2nncn12 [HJM-049] | 296 nM | 
34 | CS(=O)(=O)N1CCC(c2cnc(NCc3c(F)ccc4c3CCO4)n3cnnc23)C1 (stereo not shown) [HJM-050] | 50.5 nM | 
35 | Fc1ccc2c(c1CNc1ncc(C3CCCCC3)c3nncn13)CCO2 [HJM-051] | 167 nM | 
36 | CN1CCCC(c2cnc(NCc3c(F)ccc4c3CCO4)n3cnnc23)C1 (stereo not shown) [HJM-053] | 28.8 nM | 
37 | Fc1ccc2c(c1CNc1ncc(C3CCOC3)c3nncn13)CCO2 (stereo not shown) [HJM-054] | 31.1 nM | 
